molecular target: T1, IRE1α (Homo sapiens (Human), UniProt O75460); assay: In vitro FRET assay; assay type: biochemical; conditions: XBP1 RNA probe
Description: In vitro FRET assay was performed to evaluate the ability of select compounds to inhibit IRE1, the results of which are summarized in Table 3. To perform the in vitro FRET assay, 1× complete assay buffer (CAB; […], 50 mM sodium citrate pH 7.15, 1 mM magnesium acetate, 0.02% tween 20) was used to dilute SignalChem IRE1α protein to a final concentration of 2 nM. Selected compounds were serially diluted with DMSO in a non-binding black 384-well plate for a total of 15 ul in each well. 2 ul of the serially diluted compound or DMSO control were then added to new wells containing 98 ul of 1×CAB, for a total volume of 100 ul, 10 ul of which were then transferred to wells of a new plate. 5 ul of the diluted IRE1α was then added to each well. 5 ul of a […] XBP1 RNA probe was then added to each well. Fluorescence was then read over 30 minutes in kinetic mode (485/515 nm).
Two RNA probes were used, XBP1 wildtype (SEQ ID NO: 2) which is able to be spliced by active IRE1α or XBP1 mutant (SEQ ID NO: 3) which is unable to be spliced. Each probe contained a 5′ 6-FAM modification and a 3′ IOWA Black FQ modification.
A second FRET assay was performed to assess ATP-mediated inhibition. In this case, compounds and IRE1α were prepared and combined as discussed above, with the addition of ATP up to 1 mM final concentration. This mixture was incubated at room temperature for 60 minutes and then 5 ul of 400 nM XBP1 wildtype or mutant RNA probe was added. Plates were then read over 30 minutes in kinetic mode (485/515 nm) and rate of fluorescence increase calculated for different compound dilutions to determine IC50 (Table 3).

T1 sequence (O75460 19-977): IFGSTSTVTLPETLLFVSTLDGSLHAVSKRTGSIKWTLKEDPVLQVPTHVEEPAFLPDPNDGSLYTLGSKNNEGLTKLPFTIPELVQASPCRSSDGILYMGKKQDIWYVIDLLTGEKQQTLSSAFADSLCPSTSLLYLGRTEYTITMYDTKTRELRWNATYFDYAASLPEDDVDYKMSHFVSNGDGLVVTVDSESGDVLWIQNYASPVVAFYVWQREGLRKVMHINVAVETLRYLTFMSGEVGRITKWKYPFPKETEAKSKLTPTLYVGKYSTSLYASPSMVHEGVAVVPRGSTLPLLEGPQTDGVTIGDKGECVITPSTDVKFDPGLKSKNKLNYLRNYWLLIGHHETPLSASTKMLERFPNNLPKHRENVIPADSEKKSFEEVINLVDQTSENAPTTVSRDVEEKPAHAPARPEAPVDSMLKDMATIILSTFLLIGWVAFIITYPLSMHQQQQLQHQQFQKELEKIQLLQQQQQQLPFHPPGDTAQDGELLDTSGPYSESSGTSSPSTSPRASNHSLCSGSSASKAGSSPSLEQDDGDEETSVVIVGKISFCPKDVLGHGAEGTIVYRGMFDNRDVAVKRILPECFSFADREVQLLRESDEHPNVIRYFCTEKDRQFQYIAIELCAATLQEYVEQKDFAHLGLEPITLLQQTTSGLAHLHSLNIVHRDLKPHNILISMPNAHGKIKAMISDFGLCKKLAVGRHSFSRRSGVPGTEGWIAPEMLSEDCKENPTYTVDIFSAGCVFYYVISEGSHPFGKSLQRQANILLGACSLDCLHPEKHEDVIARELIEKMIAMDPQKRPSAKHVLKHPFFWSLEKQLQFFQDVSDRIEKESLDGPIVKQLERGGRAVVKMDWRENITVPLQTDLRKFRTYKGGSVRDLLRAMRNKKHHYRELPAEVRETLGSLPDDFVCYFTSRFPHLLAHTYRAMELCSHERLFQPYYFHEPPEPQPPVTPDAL

Row | Compound | IC50 [nM]
1 | COc1nc(NS(=O)(=O)c2ccccc2Cl)ccc1/C=C/c1cnc(NC2CCC(O)CC2)nc1 (centres unmarked) [Compound 11, 2-chloro-N-(5-((E)-2-(2-(((1r,4r)-4-hydroxycyclohexyl)amino)pyrimidin-5-yl)vinyl)-6-methoxypyridin-2-yl)benzenesulfonamide] | 1 to 5
2 | COc1nc(NS(=O)(=O)c2cnccc2Cl)ncc1C=Cc1cnc(NC2CCC(N(C)C)CC2)nc1 (centres unmarked) [Compound 43, 4-chloro-N-(5-(2-(2-(((1r,4r)-4-(dimethylamino)cyclohexyl)amino)pyrimidin-5-yl)vinyl)-4-methoxypyrimidin-2-yl)pyridine-3-sulfonamide] | 1 to 5
3 | COc1nc(NS(=O)(=O)c2ccccc2Cl)ccc1CCc1ccc(NC2CCC(N)CC2)nc1 (centres unmarked) [Compound 13, N-(5-(2-(6-(((1r,4r)-4-aminocyclohexyl)amino)pyridin-3-yl)ethyl)-6-methoxypyridin-2-yl)-2-chlorobenzenesulfonamide] | 1 to 5

More lines, now with the values ahead:

Row | IC50 [nM] | Compound
4 | 1 to 5 | N[C@H]1CC[C@H](Nc2ncc(CCc3ccc(NS(=O)(=O)c4ccccc4Cl)nn3)cn2)CC1 [Compound 7, N-(6-(2-(2-(((1r,4r)-4-aminocyclohexyl)amino)pyrimidin-5-yl)ethyl)pyridazin-3-yl)-2-chlorobenzenesulfonamide]
5 | ≤ 1 | Cc1cc(NS(=O)(=O)c2ccccc2Cl)ccc1CCc1cnc(NC2CCC(N)CC2)nc1 (centres unmarked) [Compound 6, N-(4-(2-(2-(((1r,4r)-4-aminocyclohexyl)amino)pyrimidin-5-yl)ethyl)-3-methylphenyl)-2-chlorobenzenesulfonamide]
6 | 1 to 5 | Cc1nc(NS(=O)(=O)c2ccccc2Cl)ccc1CCc1cnc(NC2CCC(N(C)C)CC2)nc1 (centres unmarked) [Compound 21, 2-chloro-N-(5-(2-(2-(((1r,4r)-4-(dimethylamino)cyclohexyl)amino)pyrimidin-5-yl)ethyl)-6-methylpyridin-2-yl)benzenesulfonamide]

molecular target: T1, IRE1α; assay: In vitro luciferase assay (IRE1α Endoribonuclease Nanoluciferase Assay); assay type: cell-based; conditions: 293T cells, XBP1 luciferase reporter
Description: Compounds disclosed herein were assessed for disruption of IRE-1 signaling using a IRE1α Endoribonuclease Nanoluciferase Assay. Briefly, 2.5×10^6 293T cells were seeded in a 10 cm^2 tissue culture plate. About 24 hours later, the cells were transfected with Effectene. In a 15 mL Tube, the following was added: 2 μg XBP1 luciferase reporter plasmid (PGK-Luc2-P2A-XBP1u-Nanoluciferase-PEST); 300 μl EC buffer; and 16 μl Enhancer, followed by incubation at room temp for 5 minutes. Next, 60 μl Effectene (Qiagen 301427) was added, followed by incubation at room temperature for 10 minutes. 2.6 mL cDMEM media was added. Old media was aspirated from the cells, followed by addition of 7 mL fresh media. Full transfection mixture was added dropwise to cells. Cells were incubated for 6 hours, followed by trypsinization, centrifugation and resuspension in 11 mL media. 100 uL of cells were plated per a well in a 96 well plate. A day later, ER stressors of choice+/−inhibitors were added. To harvest, media was aspirated from cells completely, then 50 uL 1× passive lysis buffer (Promega: E1941) was added per well and put on shaker (300 rpm) for 30 minutes at room temperature. Cells were centrifuged, and 15 uL sample per well was added to a new, opaque white 384 well plate (Corning 3570). 15 uL OneGlo (nanoluciferase kit, Promega N1630) was added. Plates were spun down, placed on shaker (300 rpm) for 10 minutes. Plates were read on luminometer, 1000 ms integration time per well. 15 uL Stop and Glo (nanoluciferase kit) was added. Plates were spun down, placed on shaker (300 rpm) for 10 minutes. Plates were read on luminometer, 1000 ms second integration time per well. Recordings are provided below in Table 4

Row | Compound | EC50 [nM]
7 | CNC1CCC(Nc2ncc(/C=C/c3cc(F)c(NS(=O)(=O)c4ccccc4Cl)nc3OC)cn2)CC1 (centres unmarked) [Compound 59, 2-chloro-N-(3-fluoro-6-methoxy-5-((E)-2-(2-(((1r,4r)-4-(methylamino)cyclohexyl)amino)pyrimidin-5-yl)vinyl)pyridin-2-yl)benzenesulfonamide] | 50 to 100
8 | COc1nc(NS(=O)(=O)c2ccccc2Cl)ccc1/C=C/c1cnc(NC2CCC(N3CCSCC3)CC2)nc1 (centres unmarked) [Compound 64, 2-chloro-N-(6-methoxy-5-((E)-2-(2-(((1r,4r)-4-thiomorpholinocyclohexyl)amino)pyrimidin-5-yl)vinyl)pyridin-2-yl)benzenesulfonamide] | ≤ 5
9 | Cc1nc(NS(=O)(=O)c2ccccc2Cl)c(F)cc1/C=C/c1cnc(NC2CCC(N)CC2)nc1 (centres unmarked) [Compound 58, N-(5-((E)-2-(2-(((1r,4r)-4-aminocyclohexyl)amino)pyrimidin-5-yl)vinyl)-3-fluoro-6-methylpyridin-2-yl)-2-chlorobenzenesulfonamide] | 50 to 100
10 | COc1nc(NS(=O)(=O)c2ccccc2Cl)c(F)cc1/C=C/c1cnc(NC2CCC(N)CC2)nc1 (centres unmarked) [Compound 54, N-(5-((E)-2-(2-(((1r,4r)-4-aminocyclohexyl)amino)pyrimidin-5-yl)vinyl)-3-fluoro-6-methoxypyridin-2-yl)-2-chlorobenzenesulfonamide] | 50 to 100
11 | COc1nc(NS(=O)(=O)c2ccccc2Cl)ccc1/C=C/c1cnc(NC2CCC(N3CCCCC3)CC2)nc1 (centres unmarked) [Compound 60, 2-chloro-N-(6-methoxy-5-((E)-2-(2-(((1r,4r)-4-(piperidin-1-yl)cyclohexyl)amino)pyrimidin-5-yl)vinyl)pyridin-2-yl)benzenesulfonamide] | ≤ 5
12 | COc1nc(NS(=O)(=O)c2ccccc2Cl)ccc1/C=C/c1cnc(NC2CCC(N3CCOCC3)CC2)nc1 (centres unmarked) [Compound 57, 2-chloro-N-(6-methoxy-5-((E)-2-(2-(((1r,4r)-4-morpholinocyclohexyl)amino)pyrimidin-5-yl)vinyl)pyridin-2-yl)benzenesulfonamide] | ≤ 5
13 | NC1CCC(Nc2ncc(/C=C/c3ccc(NS(=O)(=O)c4ccccc4Cl)c(F)c3)cn2)CC1 (centres unmarked) [Compound 3, N-(4-((E)-2-(2-(((1r,4r)-4-aminocyclohexyl)amino)pyrimidin-5-yl)vinyl)-2-fluorophenyl)-2-chlorobenzenesulfonamide] | ≤ 5
14 | COc1cc(NS(=O)(=O)c2cnccc2Cl)ccc1/C=C/c1cnc(NC2CCC(N(C)C)CC2)nc1 (centres unmarked) [Compound 65, 4-chloro-N-(4-((E)-2-(2-(((1r,4r)-4-(dimethylamino)cyclohexyl)amino)pyrimidin-5-yl)vinyl)-3-methoxyphenyl)pyridine-3-sulfonamide] | ≤ 5

Other lines, results leading:

Row | EC50 [nM] | Compound
15 | 5 to 50 | CN(C)C1CCC(Nc2ncc(/C=C/c3ccc(NS(=O)(=O)c4ccccc4Cl)nn3)cn2)CC1 (centres unmarked) [Compound 52, 2-chloro-N-(6-((E)-2-(2-(((1r,4r)-4-(dimethylamino)cyclohexyl)amino)pyrimidin-5-yl)vinyl)pyridazin-3-yl)benzenesulfonamide]
16 | 50 to 100 | COc1nc(NS(=O)(=O)c2cnccc2Cl)ccc1/C=C/c1cnc(NC2CCC(N(C)C)CC2)nc1 (centres unmarked) [Compound 56, 4-chloro-N-(5-((E)-2-(2-(((1r,4r)-4-(dimethylamino)cyclohexyl)amino)pyrimidin-5-yl)vinyl)-6-methoxypyridin-2-yl)pyridine-3-sulfonamide]
17 | 50 to 100 | Cc1nc(NS(=O)(=O)c2cnccc2Cl)ccc1/C=C/c1cnc(NC2CCC(N(C)C)CC2)nc1 (centres unmarked) [Compound 62, 4-chloro-N-(5-((E)-2-(2-(((1r,4r)-4-(dimethylamino)cyclohexyl)amino)pyrimidin-5-yl)vinyl)-6-methylpyridin-2-yl)pyridine-3-sulfonamide]
18 | ≤ 5 | CN(C)C1CCC(Nc2ncc(/C=C/c3ccc(NS(=O)(=O)c4cccc(F)c4Cl)nc3)cn2)CC1 (centres unmarked) [Compound 68, 2-chloro-N-(5-((E)-2-(2-(((1r,4r)-4-(dimethylamino)cyclohexyl)amino)pyrimidin-5-yl)vinyl)pyridin-2-yl)-3-fluorobenzenesulfonamide]
19 | ≤ 5 | COc1cc(NS(=O)(=O)c2ccccc2Cl)c(F)cc1/C=C/c1cnc(NC2CCC(N(C)C)CC2)nc1 (centres unmarked) [Compound 67, 2-chloro-N-(4-((E)-2-(2-(((1r,4r)-4-(dimethylamino)cyclohexyl)amino)pyrimidin-5-yl)vinyl)-2-fluoro-5-methoxyphenyl)benzenesulfonamide]
20 | 50 to 100 | COc1nc(NS(=O)(=O)c2cccc(F)c2Cl)ccc1/C=C/c1cnc(NC2CCC(N(C)C)CC2)nc1 (single isomer, unassigned) [Compound 53, 2-chloro-N-(5-((E)-2-(2-(((1r,4r)-4-(dimethylamino)cyclohexyl)amino)pyrimidin-5-yl)vinyl)-6-methoxypyridin-2-yl)-3-fluorobenzenesulfonamide]
21 | ≤ 5 | CN(C)C1CCC(Nc2ncc(/C=C/c3ccc(NS(=O)(=O)c4ccc(F)cc4Cl)nc3)cn2)CC1 (centres unmarked) [Compound 61, 2-chloro-N-(5-((E)-2-(2-(((1r,4r)-4-(dimethylamino)cyclohexyl)amino)pyrimidin-5-yl)vinyl)pyridin-2-yl)-4-fluorobenzenesulfonamide]
22 | ≤ 5 | CN(C)C1CCC(Nc2ncc(/C=C/c3ccc(NS(=O)(=O)c4cccc(Cl)c4Cl)nc3)cn2)CC1 (centres unmarked) [Compound 63, 2,3-dichloro-N-(5-((E)-2-(2-(((1r,4r)-4-(dimethylamino)cyclohexyl)amino)pyrimidin-5-yl)vinyl)pyridin-2-yl)benzenesulfonamide]
23 | ≤ 5 | COc1c(/C=C/c2cnc(NC3CCC(N(C)C)CC3)nc2)ccc(NS(=O)(=O)c2ccccc2Cl)c1F (centres unmarked) [Compound 66, 2-chloro-N-(4-((E)-2-(2-(((1r,4r)-4-(dimethylamino)cyclohexyl)amino)pyrimidin-5-yl)vinyl)-2-fluoro-3-methoxyphenyl)benzenesulfonamide]

Reference: patent publication US11945784B2, “IRE1 small molecule inhibitors” (Cornell University, priority 2018, dated 2024)
